Data as given in article PMC2783186 (Journal of medicinal chemistry, 2009).

Columns and labels:
PAMPA permeability = type: in vitro ADME
PLAP = PLAP (Homo sapiens, UniProt P05187); assay: PLAP luminescent assay; type: biochemical
[1] = system: Cytochrome P450 2C19 (CYP2C19); conditions: ref PubChem database; cited from earlier work
PHOSPHO1 = biological target: T1, PHOSPHO1 (Homo sapiens, UniProt Q8TCT1); assay: PHOSPHO1 counterscreen; type: biochemical; conditions: read-out: Inhibition of PHOSPHO1
T1 sequence (Q8TCT1 1-267): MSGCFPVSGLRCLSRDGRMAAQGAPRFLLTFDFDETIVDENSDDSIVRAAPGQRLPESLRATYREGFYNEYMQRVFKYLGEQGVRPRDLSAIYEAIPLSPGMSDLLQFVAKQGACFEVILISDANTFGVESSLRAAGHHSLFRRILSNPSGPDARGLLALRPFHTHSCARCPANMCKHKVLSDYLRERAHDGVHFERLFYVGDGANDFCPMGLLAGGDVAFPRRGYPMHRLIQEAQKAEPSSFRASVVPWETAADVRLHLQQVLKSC

TNAP [2] = biological target: T2, TNAP (Homo sapiens, UniProt P05186); assay: TNAP luminescent assay; type: biochemical; conditions: relative to lead compound 1
T2 sequence (P05186 18-501 limits assumed): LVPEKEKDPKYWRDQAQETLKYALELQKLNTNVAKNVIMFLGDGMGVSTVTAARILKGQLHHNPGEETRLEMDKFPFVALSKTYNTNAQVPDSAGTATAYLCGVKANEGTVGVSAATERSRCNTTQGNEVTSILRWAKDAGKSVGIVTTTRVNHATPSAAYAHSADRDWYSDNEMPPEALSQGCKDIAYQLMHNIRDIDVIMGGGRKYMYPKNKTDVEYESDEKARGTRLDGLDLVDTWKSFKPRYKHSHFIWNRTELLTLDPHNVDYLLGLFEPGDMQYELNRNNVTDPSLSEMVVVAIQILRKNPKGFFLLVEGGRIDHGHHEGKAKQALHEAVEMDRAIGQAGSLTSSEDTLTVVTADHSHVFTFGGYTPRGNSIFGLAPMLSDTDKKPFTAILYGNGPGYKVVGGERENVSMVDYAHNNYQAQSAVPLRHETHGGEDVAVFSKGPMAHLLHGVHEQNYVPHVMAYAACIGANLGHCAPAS

TNAP [3] = biological target: T2, TNAP; conditions: cited from earlier work

PLAP, sequence (P05187 23-506 limits assumed): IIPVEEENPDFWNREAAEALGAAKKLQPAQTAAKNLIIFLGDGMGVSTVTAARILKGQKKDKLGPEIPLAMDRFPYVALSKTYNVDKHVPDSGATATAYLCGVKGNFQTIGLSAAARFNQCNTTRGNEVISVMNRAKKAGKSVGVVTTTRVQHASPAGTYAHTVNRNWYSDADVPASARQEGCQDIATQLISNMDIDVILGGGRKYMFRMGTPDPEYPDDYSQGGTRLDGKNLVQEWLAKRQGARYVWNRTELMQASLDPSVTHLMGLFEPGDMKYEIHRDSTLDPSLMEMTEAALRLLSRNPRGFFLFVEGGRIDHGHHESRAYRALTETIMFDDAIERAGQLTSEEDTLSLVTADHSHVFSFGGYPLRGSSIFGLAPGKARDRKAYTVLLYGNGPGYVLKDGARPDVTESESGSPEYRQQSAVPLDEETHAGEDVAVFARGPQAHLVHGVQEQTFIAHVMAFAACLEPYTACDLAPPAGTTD

SMILES	PAMPA (% FLUX) (PAMPA permeability)	TNAP inhibitory activity (in words) (TNAP [2])	also measured
COc1ccc(OC)c(S(=O)(=O)Nc2cnc3ccccc3c2)c1 [Compound 1, 2,5-Dimethoxy-N-(quinolin-3-yl)benzenesulfonamide]	58		IC50 (PLAP): > 100 µM; Activity in Cytochrome P450 2C19 assay [1]: showed activity; inhibition at 10 µM (PHOSPHO1): < 7.4%
COc1ccc(OC)c(S(=O)(=O)Nc2ccc3ccccc3c2)c1 [Compound 12, 2,5-Dimethoxy-N-(naphthalen-2-yl)benzenesulfonamide]		loss of activity	
COc1ccc(OC)c(S(=O)(=O)Nc2ccc3ncccc3c2)c1 [Compound 13, 2,5-Dimethoxy-N-(quinolin-6-yl)benzenesulfonamide]		loss of activity	
COc1cccc(S(=O)(=O)Nc2cnc3ccccc3c2)c1 [Compound 15, 3-Methoxy-N-(quinolin-3-yl)benzenesulfonamide]		dramatic loss of activity	
COc1ccc(OC)c(NS(=O)(=O)c2cnc3ccccc3c2)c1 [Compound 16, N-(2,5-Dimethoxyphenyl)quinoline-3-sulfonamide]		abolished the inhibitory activity	
COc1ccc(OC)c(CNc2cnc3ccccc3c2)c1 [Compound 17]		abolished the inhibitory activity	
COc1ccc(Br)cc1S(=O)(=O)Nc1cnc2ccccc2c1 [Compound 18, 5-Bromo-2-methoxy-N-(quinolin-3-yl)benzenesulfonamide]	54		
COc1ccc(C)cc1S(=O)(=O)Nc1cnc2ccccc2c1 [Compound 19, 2-Methoxy-5-methyl-N-(quinolin-3-yl)benzenesulfonamide]	7		
NC(N)=NCCCC[C@H](N)C(=O)O [L-homoarginine]			Mode of inhibition versus phosphate-donor substrate (TNAP [3]): uncompetitive
c1ccc([C@H]2CN3CCSC3=N2)cc1 [levamisole]			Mode of inhibition versus phosphate-donor substrate (TNAP [3]): uncompetitive
